Reference: PMC8252455, “Prediction of a clinically effective dose of THY1773, a novel V 1B receptor antagonist, based on preclinical data” (Biopharmaceutics & Drug Disposition, 2021)

Experiments:
[1] = Metabolic stability in dog liver microsomes; format: in vitro ADME; conditions: 1 μmol/L
Protocol: The oxidative metabolism of THY1773 was evaluated in rat and dog liver microsomes. THY1773 (1 μmol/L) was incubated with pooled liver microsomes (0.25 mg protein/ml) in sodium–potassium phosphate buffer (pH 7.4) consisting of 100 mmol/L sodium phosphate, 100 mmol/L potassium chloride, 2.5 mmol/L magnesium chloride (MgCl2), 1.5 mmol/L glucose‐6‐phosphate (G‐6‐P), and 0.18 units/ml G‐6‐P dehydrogenase (G‐6‐PDH). The reactions were initiated by the addition of β‐nicotinamide–adenine dinucleotide phosphate, oxidized form (NADP^+, 0.16 mmol/L), and incubated for 10, 20, 30, 40, 50, and 60 min. […] The intrinsic clearance (CLint) was calculated by the substrate depletion method described by Naritomi et al. (2001).
Since the CLliver was underestimated in rats and dogs from CLint in liver microsomes, the ratio of observed in vivo CLint and predicted CLint was calculated as the empirical scaling factor (ESF) for the extrapolation of CLliver from in vitro data. […] The total plasma clearance (CLtotal) was calculated by Equation (4): (4) CLtotal=QH×fu×(CLint/fu,mic)/QH+(fu/Rb)×(CLint/fu,mic)+CLrenal where QH is hepatic blood flow, fu is the free fraction in plasma, fu,mic is the fraction unbound in HLMs, Rb is blood‐to‐plasma ratio, and CLrenal is renal clearance. The fu,mic value was calculated using the Simcyp population based simulator (Version 16 R1; Simcyp Ltd.). […]

major CYP isoforms = assay: In vitro CYP inhibition or induction potential; format: in vitro ADME; conditions: data not shown
[2] = Distribution into brain and pituitary gland in rats; format: in vivo, rat; conditions: 1 h after oral 1 mg/kg
Protocol: The PK and urinary excretion of THY1773 in rats (1 mg/kg) and dogs (0.5 mg/kg) under fasted conditions were evaluated following intravenous or oral administration of THY1773. THY1773 was dissolved in 10% (vol/vol) hydroxypropyl‐β‐cyclodextrin at pH 4 for intravenous administration, or suspended in 0.5% (wt/vol) methyl cellulose 400 for oral administration. After a single intravenous or oral administration of THY1773, blood samples were collected into tubes containing EDTA‐2K as an anticoagulant. The scheduled time points were predose (dog only), 5 (intravenous only), 15, 30 min, 1, 2, 4, 8, 12, and 24 h postdose. Plasma was separated by centrifugation. Urine samples were collected into bottles set on ice for 24 h after intravenous administration of THY1773. Plasma and urine samples were treated with 4 volumes of acetonitrile/methanol (9:1, vol/vol) containing the IS. After centrifugation (3639 × g, 4°C, 10 min) to remove precipitated proteins, the supernatant was subjected to LC‐MS/MS analysis. The distributions of THY1773 into brain and pituitary gland in rats were investigated after a single oral administration of THY1773 (1 mg/kg). Blood was collected from the tail vein into tubes containing EDTA‐2K at 1 h after a single oral administration of THY1773, and the plasma was separated by centrifugation (12000 × g, 4°C, 3 min). […]

[3] = Plasma protein binding by equilibrium dialysis, rat plasma; format: in vitro ADME; conditions: 300 ng/ml
Protocol: The plasma protein binding of THY1773 in rats, dogs, and humans was evaluated by an equilibrium dialysis method using a 96‐well equilibrium dialysis plate (HTDialysis) with a 12–14 kDa cut‐off dialysis membrane. THY1773 was dissolved in dimethyl sulfoxide, and spiked with rat, dog, or human plasma at a final concentration of 300 ng/ml. An aliquot of plasma containing THY1773 and sodium phosphate buffer (pH 7.4) was added into the donor side and the receiver side of each designated well, respectively. After incubation for 6 h at a rate of 50 oscillation/min at 37°C in an air incubator, an aliquot of each side of each well was collected and mixed with acetonitrile/methanol (9:1, vol/vol) containing the IS. Each sample was centrifuged at 3974 × g for 10 min at 4°C to remove the precipitated proteins, and the resultant supernatants were subjected to LC‐MS/MS analysis. The protein binding (%) was calculated using the Boudinot formula (Boudinot & Jusko, 1984).

[4] = Prediction of human CLtotal (FCIM, two-species allometry, IVIVE)
From the text: Of the many reported methods for the prediction of human CL, the top two methods reported by Ring et al. (2011) were selected based on prediction accuracy; that is, the unbound fraction corrected intercept method (FCIM) and two‐species‐based allometry (rat and dog) described by Equations (2) and (3), respectively (Tang, Hussain, Leal, Mayersohn, & Fluhler, 2007; Tang & Mayersohn, 2005): (2) CLhuman(mL/min/kg)=33.35×(a/Rfu)^0.77/Humanbodyweight(kg) (3) CL=a×(Humanbodyweight)^0.628 where the allometric coefficient (a) is obtained from the intercept of the simple allometry log–log plot between rats and dogs, and Rfu is the ratio of unbound fraction in plasma between rats and humans. Human body weight was assumed to be 70 kg. The hepatic CL (CLliver) was also predicted by physiologically based in vitro–in vivo extrapolation (IVIVE) method using physiological parameters listed in Table 1 based on the well stirred model (Yang, Jamei, Yeo, Rostami‐Hodjegan, & Tucker, 2007).
Since the CLliver was underestimated in rats and dogs from CLint in liver microsomes, the ratio of observed in vivo CLint and predicted CLint was calculated as the empirical scaling factor (ESF) for the extrapolation of CLliver from in vitro data. Human CLliver was predicted from CLint in HLMs with and without applying the average of ESF derived from rats and dogs. The total plasma clearance (CLtotal) was calculated by Equation (4): (4) CLtotal=QH×fu×(CLint/fu,mic)/QH+(fu/Rb)×(CLint/fu,mic)+CLrenal where QH is hepatic blood flow, fu is the free fraction in plasma, fu,mic is the fraction unbound in HLMs, Rb is blood‐to‐plasma ratio, and CLrenal is renal clearance. The fu,mic value was calculated using the Simcyp population based simulator (Version 16 R1; Simcyp Ltd.). The CLrenal was estimated by multiplying fu by glomerular filtration rate (GFR), assuming glomerular filtration only.
The fold error of the difference between observed and predicted human PK parameters was calculated by dividing the predicted value by the observed value.

[5] = PK and urinary excretion in rats; format: in vivo, rat
Protocol: The PK and urinary excretion of THY1773 in rats (1 mg/kg) and dogs (0.5 mg/kg) under fasted conditions were evaluated following intravenous or oral administration of THY1773. THY1773 was dissolved in 10% (vol/vol) hydroxypropyl‐β‐cyclodextrin at pH 4 for intravenous administration, or suspended in 0.5% (wt/vol) methyl cellulose 400 for oral administration. After a single intravenous or oral administration of THY1773, blood samples were collected into tubes containing EDTA‐2K as an anticoagulant. The scheduled time points were predose (dog only), 5 (intravenous only), 15, 30 min, 1, 2, 4, 8, 12, and 24 h postdose. Plasma was separated by centrifugation. Urine samples were collected into bottles set on ice for 24 h after intravenous administration of THY1773. Plasma and urine samples were treated with 4 volumes of acetonitrile/methanol (9:1, vol/vol) containing the IS. After centrifugation (3639 × g, 4°C, 10 min) to remove precipitated proteins, the supernatant was subjected to LC‐MS/MS analysis. The distributions of THY1773 into brain and pituitary gland in rats were investigated after a single oral administration of THY1773 (1 mg/kg). Blood was collected from the tail vein into tubes containing EDTA‐2K at 1 h after a single oral administration of THY1773, and the plasma was separated by centrifugation (12000 × g, 4°C, 3 min). After blood collection, the brain and pituitary gland were excised followed by homogenization with approximately 4 volumes of distilled water. Plasma, brain, and pituitary samples were treated with 4 volumes of acetonitrile/methanol (9:1, vol/vol) containing the IS and centrifuged (3639 × g, 4°C, 10 min). Aliquots of the supernatant were subjected to LC‐MS/MS analysis.
The plasma concentration–time profiles of THY1773 were analyzed by a non‐compartmental analysis with PK analysis software Phoenix WinNonlin® (version 6.1; Certara), and the PK parameters were calculated. The fraction excreted in urine was calculated by dividing the amount of THY1773 excreted in urine by the administered dose.

[6] = male rats, iv 1 mg/kg, mean (%CV), n=3
[7] = male rats, po 1 mg/kg, mean (%CV), n=3

CC(C)NC(=O)Cn1c(-c2cccc(Cl)c2)nn(-c2ccc(CCN3CCOCC3)cc2)c1=O [THY1773]
CLint in liver microsomes [1]: 32.2 μL/min/mg protein | In vitro inhibition or induction potential on major CYP isoforms (major CYP isoforms): did not have any apparent in vitro inhibition or induction potential | Concentration ratio of brain to plasma [2]: 0.2 | Concentration ratio of pituitary gland to plasma [2]: 4.7 | Plasma protein binding [3]: 89.2% | Predicted human CLtotal ([4]; FCIM): 1.07 mL/min/kg | Predicted human CLtotal ([4]; IVIVE method with ESF): 1.06 mL/min/kg | Predicted human CLtotal ([4]; IVIVE method without ESF): 0.25 mL/min/kg | Predicted human CLtotal ([4]; Two species allometry (rat and dog)): 3.73 mL/min/kg | AUC0‐∞ [5, 6]: 762 (14.9) h·ng/ml | CLtotal [5, 6]: 1330 (13.7) ml/h/kg | Vdss [5, 6]: 2220 (5.7) ml/kg | t1/2 [5, 6]: 1.38 (2.3) h | F (oral bioavailability) ([5]; male rats, po 1 mg/kg, 1 mg/kg): 46.6% | AUC0‐∞ [5, 7]: 355 (13.5) h·ng/ml | Cmax [5, 7]: 136 (11.8) ng/ml | t1/2 [5, 7]: 1.45 (5.5) h | tmax [5, 7]: 0.833 (34.6) h | CLrenal compared with fu × GFR ([5]; rats): comparable to fu × GFR | CLtotal as share of hepatic blood flow ([5]; rats, single intravenous administration): approximately 30 % of hepatic blood flow | Urinary excretion of unchanged drug ([5]; rats, within 24 h post intravenous dosing): 4.6%
